Measured values published in patent US20260226073A1 (AURIGENE ONCOLOGY LIMITED, priority 2023, published 2026).

Columns and labels:
[1] = test system: NFAT signaling pathway in Jurkat NFAT reporter cells; test: Jurkat NFAT reporter assay; format: cell-based; settings: Homo sapiens, 30 min with compound, then soluble anti-human CD3/CD28 antibody for 6 hours, luciferase readout, read-out: EC50 (Group)
Outline: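 Results are expressed as fold change relative to stimulated, inhibitor-free cells. Stimulation was 6 h with soluble anti-human CD3/CD28 antibody after a 30-min exposure of 1×10^5 NFAT-RE luciferase Jurkat reporter cells per well to the Cbl-b inhibitor; signal read by Bio-Glo bioluminescence.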

[2] = target: T1, human recombinant CBL-b (human Biotin CBL-b recombinant protein a.a. 39-426) (Homo sapiens, UniProt Q13191); test: Biochemical assay for CBL-b inhibition (ligand displacement TR-FRET); format: binding; settings: 50 nM CBL-b, 0.3 μM Bodipy FL-Probe, read-out: IC50 (CBL-b inhibition, group)
T1 construct: human Biotin CBL-b recombinant protein a.a; 39-426; Biotin (biotinylated); made in house
T1 sequence (Q13191 39-426): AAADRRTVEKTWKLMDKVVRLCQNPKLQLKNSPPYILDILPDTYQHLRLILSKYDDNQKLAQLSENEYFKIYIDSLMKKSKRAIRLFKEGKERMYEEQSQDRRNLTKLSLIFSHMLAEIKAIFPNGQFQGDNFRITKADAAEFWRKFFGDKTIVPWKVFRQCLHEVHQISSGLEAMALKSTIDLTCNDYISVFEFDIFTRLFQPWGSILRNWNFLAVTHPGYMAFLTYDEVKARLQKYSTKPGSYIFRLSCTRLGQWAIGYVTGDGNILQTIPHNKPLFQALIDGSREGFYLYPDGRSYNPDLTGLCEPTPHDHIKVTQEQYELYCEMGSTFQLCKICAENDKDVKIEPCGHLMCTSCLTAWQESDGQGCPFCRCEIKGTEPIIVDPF
Outline: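 Ligand-displacement TR-FRET: 0.3 μM Bodipy FL probe competes with compound for 50 nM biotin-CBL-b (aa 39-426) after a 60 min RT compound pre-incubation; terbium-streptavidin detection, 60 min each step. Dose-response sigmoidal fitting gave IC50 and % maximum inhibition.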

| EC50 [1] | IC50 [2] | SMILES |
| --- | --- | --- |
| < 300 nM | < 80 nM | Cc1cc(CNC(C)C2CC2)cc(N2Cc3ccc(-c4ccc(Cl)cc4-c4nncn4C)cc3C2=O)n1 (stereo not drawn) [Compound 122, 6-(4-Chloro-2-(4-methyl-4H-1,2,4-triazol-3-yl)phenyl)-2-(4-(((1-cyclopropyl-ethyl)amino)methyl)-6-methylpyridin-2-yl)isoindolin-1-one] |
| < 300 nM | < 80 nM | Cc1cc(CNCC2CC2)cc(N2Cc3ccc(-c4ccc(F)cc4-c4nncn4C)cc3C2=O)n1 [Compound 127, 2-(4-(((Cyclopropylmethyl)amino)methyl)-6-methylpyridin-2-yl)-6-(4-fluoro-2-(4-methyl-4H-1,2,4-triazol-3-yl)phenyl)isoindolin-1-one] |
| < 300 nM | < 80 nM | CC(NCc1cc(Cl)nc(N2Cc3ccc(C4(Cc5nncn5C)COC4)cc3C2=O)c1)C1CC1 (stereo not drawn) [Compound 131, 2-(6-Chloro-4-(((1-cyclopropylethyl)amino)methyl)pyridin-2-yl)-6-(3-((4-methyl-4H-1,2,4-triazol-3-yl)methyl)oxetan-3-yl)isoindolin-1-one] |
| < 300 nM | < 80 nM | Cn1cnnc1-c1cc(Cl)ccc1-c1ccc2c(c1)C(=O)N(c1cc(CNCC3CC3)cc(C(F)(F)F)n1)C2 [Compound 132, 6-(4-Chloro-2-(4-methyl-4H-1,2,4-triazol-3-yl)phenyl)-2-(4-(((cyclopropylmethyl)amino)methyl)-6-(trifluoromethyl)pyridin-2-yl)isoindolin-1-one] |
| 1000 to 10000 nM | < 80 nM | Cc1nc(CNCC2CC2)cc(N2Cc3ccc(-c4ccc(F)cc4-c4nncn4C)cc3C2=O)n1 [Compound 133, 2-(6-(((Cyclopropylmethyl)amino)methyl)-2-methylpyrimidin-4-yl)-6-(4-fluoro-2-(4-methyl-4H-1,2,4-triazol-3-yl)phenyl)isoindolin-1-one] |
| < 300 nM | < 80 nM | Cc1cc(CNCC2CCC2)cc(N2Cc3ccc(-c4ccc(F)cc4-c4nncn4C)cc3C2=O)n1 [Compound 134, 2-(4-(((Cyclobutylmethyl)amino)methyl)-6-methylpyridin-2-yl)-6-(4-fluoro-2-(4-methyl-4H-1,2,4-triazol-3-yl)phenyl)isoindolin-1-one] |
| < 300 nM | < 80 nM | C[C@@H]1C[C@H](C)CN(Cc2cc(N3Cc4ccc(C5(Cc6nncn6C)CC(C#N)C5)cc4C3=O)nc(C(F)(F)F)c2)C1 (stereo partly drawn) [Compound 143] |
| < 300 nM | < 80 nM | Cn1cnnc1CC1(c2ccc3c(c2)C(=O)N(c2cc(CNCC4CCC4)cc(Cl)n2)C3)COC1 [Compound 144, 2-(6-Chloro-4-(((cyclobutylmethyl)amino)methyl)pyridin-2-yl)-6-(3-((4-methyl-4H-1,2,4-triazol-3-yl)methyl)oxetan-3-yl)isoindolin-1-one] |
| < 300 nM | < 80 nM | Cn1cnnc1CC1(c2ccc3c(c2)C(=O)N(c2cc(CNCC4CC4)cc(Cl)n2)C3)CCC1 [Compound 145, 2-(6-Chloro-4-(((cyclopropylmethyl)amino)methyl)pyridin-2-yl)-6-(1-((4-methyl-4H-1,2,4-triazol-3-yl)methyl)cyclobutyl)isoindolin-1-one] |
| 300 to 1000 nM | < 80 nM | Cc1cc(CNCC2CC2)cc(N2Cc3ccc(C4(Cc5nncn5C)COC4)cc3C2=O)n1 [Compound 147, 2-(4-(((Cyclopropylmethyl)amino)methyl)-6-methylpyridin-2-yl)-6-(3-((4-methyl-4H-1,2,4-triazol-3-yl)methyl)oxetan-3-yl)isoindolin-1-one] |
| < 300 nM | < 80 nM | CCC1CCCN(Cc2cc(Cl)nc(N3Cc4ccc(C5(Cc6nncn6C)COC5)cc4C3=O)c2)C1 (stereo not drawn) [Compound 148, 2-(6-Chloro-4-((3-ethylpiperidin-1-yl)methyl)pyridin-2-yl)-6-(3-((4-methyl-4H-1,2,4-triazol-3-yl)methyl)oxetan-3-yl)isoindolin-1-one] |
| < 300 nM | < 80 nM | Cn1cnnc1CC1(c2ccc3c(c2)C(=O)N(c2cc(CNCCC(F)(F)F)cc(Cl)n2)C3)CCC1 [Compound 151, 2-(6-Chloro-4-(((3,3,3-trifluoropropyl)amino)methyl)pyridin-2-yl)-6-(1-((4-methyl-4H-1,2,4-triazol-3-yl)methyl)cyclobutyl)isoindolin-1-one] |
| < 300 nM | < 80 nM | C[C@H]1CCCN(Cc2cc(Cl)nc(N3Cc4ccc(C5(Cc6nncn6C)CC(F)(F)C5)cc4C3=O)c2)C1 [Compound 152, (S)-2-(6-Chloro-4-((3-methylpiperidin-1-yl)methyl)pyridin-2-yl)-6-(3,3-difluoro-1-((4-methyl-4H-1,2,4-triazol-3-yl)methyl)cyclobutyl)isoindolin-1-one] |
| 300 to 1000 nM | < 80 nM | Cn1cnnc1CC1(c2ccc3c(c2)C(=O)N(c2cc(CNCC4CC4)cc(Cl)n2)C3)CC(C#N)C1 (stereo not drawn) [Compound 156] |
| < 300 nM | < 80 nM | Cn1cnnc1CC1(c2ccc3c(c2)C(=O)N(c2cc(CN4CCCCCC4)cc(Cl)n2)C3)COC1 [Compound 157] |
| 1000 to 10000 nM | < 80 nM | Cn1cnnc1CC1(c2ccc3c(c2)C(=O)N(c2cc(CNCCC(F)(F)F)cc(Cl)n2)C3)CC(C#N)C1 (stereo not drawn) [Compound 158, 3-(2-(6-Chloro-4-(((3,3,3-trifluoropropyl)amino)methyl)pyridin-2-yl)-3-oxoisoindolin-5-yl)-3-((4-methyl-4H-1,2,4-triazol-3-yl)methyl)cyclobutane-1-carbonitrile] |
| < 300 nM | < 80 nM | Cn1cnnc1CC1(c2ccc3c(c2)C(=O)N(c2cc(CNCC4CCCC4)cc(Cl)n2)C3)COC1 [Compound 159, 2-(6-Chloro-4-(((cyclopentylmethyl)amino)methyl)pyridin-2-yl)-6-(3-((4-methyl-4H-1,2,4-triazol-3-yl)methyl)oxetan-3-yl)isoindolin-1-one] |
| < 300 nM | < 80 nM | Cn1cnnc1CC1(c2ccc3c(c2)C(=O)N(c2cc(CNCC4CCC4)cc(C(F)(F)F)n2)C3)COC1 [Compound 162, 2-(4-(((Cyclobutylmethyl)amino)methyl)-6-(trifluoromethyl)pyridin-2-yl)-6-(3-((4-methyl-4H-1,2,4-triazol-3-yl)methyl)oxetan-3-yl)isoindolin-1-one] |
| < 300 nM | < 80 nM | Cn1cnnc1CC1(c2ccc3c(c2)C(=O)N(c2cc(CNCC4CCC4)cc(Cl)n2)C3)CCC1 [Compound 168] |
| < 300 nM | < 80 nM | Cn1cnnc1CC1(c2ccc3c(c2)C(=O)N(c2cc(CNCC4CC(F)(F)C4)cc(Cl)n2)C3)COC1 [Compound 169, 2-(6-Chloro-4-((((3,3-difluorocyclobutyl)methyl)amino)methyl)pyridin-2-yl)-6-(3-((4-methyl-4H-1,2,4-triazol-3-yl)methyl)oxetan-3-yl)isoindolin-1-one] |
| 300 to 1000 nM | < 80 nM | Cn1cnnc1CC1(c2ccc3c(c2)C(=O)N(c2cc(CNCC4(C)CCC4)cc(Cl)n2)C3)COC1 [Compound 172, 2-(6-Chloro-4-((((1-methylcyclobutyl)methyl)amino)methyl)pyridin-2-yl)-6-(3-((4-methyl-4H-1,2,4-triazol-3-yl)methyl)oxetan-3-yl)isoindolin-1-one] |
| 300 to 1000 nM | < 80 nM | Cn1cnnc1CC1(c2ccc3c(c2)C(=O)N(c2cc(CNCC4CC4(F)F)cc(Cl)n2)C3)COC1 (stereo not drawn) [Compound 175, 2-(6-Chloro-4-((((2,2-difluorocyclopropyl)methyl)amino)methyl)pyridin-2-yl)-6-(3-((4-methyl-4H-1,2,4-triazol-3-yl)methyl)oxetan-3-yl)isoindolin-1-one] |
| 300 to 1000 nM | < 80 nM | CC1CN(Cc2cc(Cl)nc(N3Cc4ccc(C5(Cc6nncn6C)COC5)cc4C3=O)c2)CCC1(F)F (stereo not drawn) [Compound 178] |
| < 300 nM | < 80 nM | Cn1cnnc1CC1(c2ccc3c(c2)C(=O)N(c2cc(CNCC4CCC4)cc(Cl)n2)C3)CC(C#N)C1 (stereo not drawn) [Compound 182, 3-(2-(6-Chloro-4-(((cyclobutylmethyl)amino)methyl)pyridin-2-yl)-3-oxoiso-indolin-5-yl)-3-((4-methyl-4H-1,2,4-triazol-3-yl)methyl)cyclobutane-1-carbonitrile] |
| 1000 to 10000 nM | < 80 nM | Cn1cnnc1CC1(c2ccc3c(c2)C(=O)N(c2cc(CNCC4(F)CCC4)cc(Cl)n2)C3)COC1 [Compound 185] |
| 1000 to 10000 nM | < 80 nM | Cn1cnnc1CC1(c2ccc3c(c2)C(=O)N(c2cc(CNCC(C)(C)O)cc(Cl)n2)C3)COC1 [Compound 187] |
| 300 to 1000 nM | < 80 nM | Cn1cnnc1CC1(c2ccc3c(c2)C(=O)N(c2cc(CNCC4CCCO4)cc(Cl)n2)C3)COC1 (stereo not drawn) [Compound 188, 2-(6-Chloro-4-((((tetrahydrofuran-2-yl)methyl)amino)methyl)pyridin-2-yl)-6-(3-((4-methyl-4H-1,2,4-triazol-3-yl)methyl)oxetan-3-yl)isoindolin-1-one] |
| 1000 to 10000 nM | < 80 nM | Cn1cnnc1CC1(c2ccc3c(c2)C(=O)N(c2cc(CNCc4cscn4)cc(Cl)n2)C3)COC1 [Compound 189] |
| 1000 to 10000 nM | < 80 nM | CC(Cc1nncn1C)Nc1ccc2c(c1)C(=O)N(c1cc(CN3CCC[C@H](C)C3)cc(Cl)n1)C2 (stereo partly drawn) [Compound 190] |
| 1000 to 10000 nM | < 80 nM | Cn1cnnc1CC1(c2ccc3c(c2)C(=O)N(c2cc(CNC4CCCC4O)cc(Cl)n2)C3)COC1 (stereo not drawn) [Compound 193, 2-(6-Chloro-4-(((2-hydroxycyclopentyl)amino)methyl)pyridin-2-yl)-6-(3-((4-methyl-4H-1,2,4-triazol-3-yl)methyl)oxetan-3-yl)isoindolin-1-one] |
